Results: patent US11476000B2, “Methods and systems using mathematical analysis and machine learning to diagnose disease” (Analytics For Life Inc., priority 2015, dated 2022)

Key:
[1] = estimated; cited from earlier work
[2] = test system: test rats exposed to DMO in-utero; test: Cardiovascular adaptation to pregnancy in rats exposed to DMO in utero; type: in vivo, rat; conditions: in-utero exposed rats with resolved CHD; altered CO, SV, strain, elevated mean arterial pressure
Protocol: (§1) To explore the potential deleterious long-term consequences of resolved CHDs, the exemplified rat model was developed that recapitulates many of the clinical presentations of CHD. To generate such a model, pregnant rats were treated with a chemical teratogen. […] Without wishing to be bound to particular theory, it is thought that DMO teratogenicity is mediated by oxidative stress which might be the result of the result of hypoxia reperfusion injury caused by bradycardias induced by disruption of calcium and potassium ion channels in embryonic myocytes. […] The administration of four 300 mg/kg doses every twelve hours beginning on the morning of gestation day (GD) 9 produces approximately a 50% incidence of CHD if fetuses are examined on GD 21, one day prior to natural parturition (see, e.g., Weston et al., “Co-variation in frequency and severity of cardiovascular and skeletal defects in Sprague-Dawley rats after maternal administration of dimethadione, the N-demethylated metabolite of trimethadione. Birth defects research Part B,” Developmental and reproductive toxicology, Vol. 92, Pages 206-15 (2011)). […] For example, in infants, approximately 80% of VSD resolves by one year of age, and in test rats after DMO exposure, about 80% of the VSD resolve spontaneously by weaning. […]

[3] = test system: outbred pregnant Sprague-Dawley rats; test: Teratogenicity of maternal DMO administration in pregnant rats (CHD in progeny); type: in vivo; conditions: rat pups after DMO exposure, natural delivery, echocardiography
Protocol: as §1

[4] = test system: outbred pregnant Sprague-Dawley rats; conditions: four 300 mg/kg doses every twelve hours beginning morning of GD 9; fetuses examined on GD 21; cited from earlier work

CN1C(=O)OC(C)(C)C1=O [trimethadione]
in utero exposures resulting in embryo/fetal loss, or malformations including a high incidence of CHD [1]: 80%

CC1(C)OC(=O)NC1=O [DMO, dimethadione]
adaptation of the cardiovascular system to pregnancy [2]: adapted poorly to the burden of pregnancy | VSD that resolve spontaneously by weaning [3]: approximately 80% | incidence of CHD [4]: ~50%
